Measured values from patent US20220016080A1, “COMPOUNDS THAT SELECTIVELY AND EFFECTIVELY INHIBIT HAKAI-MEDIATED UBIQUITINATION, AS ANTI-CANCER DRUGS” (FUNDACIÓN PROFESOR NOVOA SANTOS, priority 2018, published 2022).

Key:
LoVo cells [1] = experiment: Invasion assay, LoVo; type: cell-based; conditions: treated 48 h before seeding
Description: (§1) For invasion assays, cells were treated with Hakin-1 or DMSO as vehicle for 48 h using 1% FBS during the last 24 hours. 3×10^5 MDCK, MDCK-Hakai or LoVo cells were seeded in a cell invasion chamber (Cell invasion assaykit, Chemicon International) containing medium with 2% FBS. After 72 hours for MDCK and MDCK-Hakai Invasive and 16 h for LoVo cells, invasive cells invaded that reach the lower chamber containing 30% FBS were fixed and stained with crystal violet (Sigma Aldrich, St Louis, Mo.) following the manufacturer's specifications. For migration assays, HT29 cells were cultured with Hakin-1 or DMSO as vehicle for 48 h, using medium without serum the last 24 h. In the cell migration chamber were seeded 3×10^5 HT29 cells (Cell migration kit, Millipore, Bedford, Mass.) containing medium without serum. After 16 h, migrated cells in the lower chamber containing serum with 30% FBS were stained with crystal violet and counted following the manufacturer's specifications. For both invasion and migration assays cells were counted in five fields photographed with an Olympus microscope using a 20× objective, experiments were performed in triplicates for each condition and the assays were repeated at least three times. Results are expressed as mean±SD.

[2] = test system: bladder cancer 5637 cells; experiment: BrdU proliferation assay, 5637; type: cell-based, human; conditions: 48 h
Description: (§2) For BrdU assays, 1×10^4 of indicated cells were plated per well into a 96-well plate. After 24 h, cells were treated with the indicated inhibitors for 48 h. Three independent experiments were plated with six replicates per each condition. Cells were treated with […] BrdU for 2 h. BrdU incorporation into newly synthesized DNA was measured using a cell proliferation colorimetric immunoassay kit according to the manufacturer's instructions (Roche, Switzerland). Results are expressed as mean±S.D. Results are represented as percentage of positive cells (mean±S.D) of three independent experiments.

Hakai-MDCK cells = experiment: Invasion assay, Hakai-MDCK; type: cell-based; conditions: treated 48 h before seeding
Description: as §1

HT29 cells [3] = experiment: Migration assay, HT29; type: cell-based; conditions: HT-29; treated 48 h
Description: as §1

[4] = test system: ubiquitination in 293T cells; experiment: Ubiquitination assay in 293T cells transfected with v-Src and HA-ubiquitin (Hakai not overexpressed); type: cell-based
Description: Six hours after transfection cells were treated with indicated concentrations of Hakin-1, Hakin-5 or the rest of the analogues tested for 36 h. Whole cell extracts were obtained in lysis buffer (20 mM Tris-HCl pH 7.5, 150 mM NaCl and 1% Triton X-100) containing 10 μg/ml leupeptin, 10 μg/ml aprotinin and 1 mM phenylmethanesulphonyl fluoride (PMSF), supplemented with 10 mM N-ethylmaleimide. Cells were harvested and subjected to western blotting using anti-HA antibody to detect ubiquitination.

HT-29 cells [5] = experiment: Soft agar-colony formation assay, HT29; type: cell-based; conditions: 28 days
Description: (§3) Soft agar-colony formation assay was performed on 12-well plates in triplicates at a density of 5×10^3 MDCK and MDCK-Hakai cells/well, or 12×10^3 HT29 cells/well. Cells were seeded in medium with 0.5% low-melting agarose over a layer with 0.75% low-melting agarose (Lonza Rockland, Me., USA). Cells were treated with the indicated inhibitors and DMSO was used as vehicle. Treatment was refreshed every 3 days and, after 21 days for MDCK and MDCK-Hakai cells or 28 days for HT29 cells, number of colonies were quantified. Quantification of five randomly-selected fields of each condition was photographed with a Nikon Eclipse-TI microscope (objective 4×). Experiments were conducted with three triplicates and were repeated three times. Data are represented as mean±SD.

liver cancer HepG2 cells = experiment: BrdU proliferation assay, HepG2; type: cell-based, human; conditions: 48 h
Description: as §2

HT29 cells [6] = experiment: BrdU proliferation assay, HT29; type: cell-based; conditions: 48 h
Description: as §2

HT-29 cells [7] = experiment: Western blotting of EMT markers, HT-29; type: cell-based; conditions: 48 h
Description: For western blot analysis, cells were treated with the indicated inhibitors for 48 h and the whole cell extracts were obtained as described previously. Twenty micrograms of lysates were resolved on a 10% polyacrilamide SDS-PAGE followed by western blot analysis performed as previously described. For immunofluorescence assays cells were grown for 24 h on glass coverslips and treated with the indicated inhibitors for 48 h. Cells were fixed with 4% PFA for 15 min, permeabilized with 0.5% […] and incubated with E-cadherin antibody for 2 h. Coverslips were incubated with fluorescein-tagged secondary antibody (Dakopatts, Sweden) for […]. Finally coverslips were mounted with ProLong Gold antifade reagent (LifeTech, UK) and images were taken in epifluorescence microscope (Olympus) using 40× objective.

[8] = test system: MDCK non-transformed cells; experiment: Soft agar-colony formation assay, MDCK; type: cell-based; conditions: 21 days
Description: as §3

LoVo cells [9] = experiment: BrdU proliferation assay, LoVo; type: cell-based; conditions: 48 h
Description: as §2

O=C(O)c1ccc(-n2nnnc2SCC(=O)c2ccc([N+](=O)[O-])cc2)cc1 [Hakin-1, 4-(5-{[2-(4-nitrophenyl)-2-oxoethyl]thiol}-1H-tetrazol-1-yl)benzoic acid]
cell invasion (LoVo cells [1]): strongly reduced cell invasion
cell proliferation (BrdU) [2]: inhibits cell proliferation
cell invasion (Hakai-MDCK cells): decreased cell invasion
cell migration (HT29 cells [3]): important reduction of cell migration
ubiquitination when Hakai was not overexpressed [4]: did not affect ubiquitination
colony formation (soft agar) (HT-29 cells [5]): robust inhibition of colony formation
cell proliferation (BrdU) (liver cancer HepG2 cells): inhibits cell proliferation
cell proliferation (BrdU) (HT29 cells [6]): reduced cell proliferation
Cortactin expression levels (western blotting) (HT-29 cells [7]): increase expression levels
E-cadherin levels (western blotting) (HT-29 cells [7]): increase E-cadherin levels
mesenchymal Vimentin marker (western blotting) (HT-29 cells [7]): reduced
colony formation (soft agar) [8]: no colony formation was detected
cell proliferation (BrdU) (LoVo cells [9]): reduced cell proliferation
